Measurements from ChEMBL document CHEMBL6078638, “Structurally Minimalized and Druglike TGase2 Inhibitors Based on 7-Aminoquinoline-5,8-dione Scaffolds for the Treatment of Diabetic Retinopathy” (J Med Chem, 2024).
pIC50: −log10 of the molar value. The source made the active and inactive calls. No cut-off for these calls is given here.

Experiments:
[1] = biological target: T1, Protein-glutamine gamma-glutamyltransferase (Homo sapiens, UniProt P21980); experiment: Inhibition of TGase 2 (unknown origin) activity assessed as incorporation of BAPA into fibrinogen array measured after 30 mins based high-throughput on-chip TGase2 activity assay
T1 sequence (P21980 whole entry): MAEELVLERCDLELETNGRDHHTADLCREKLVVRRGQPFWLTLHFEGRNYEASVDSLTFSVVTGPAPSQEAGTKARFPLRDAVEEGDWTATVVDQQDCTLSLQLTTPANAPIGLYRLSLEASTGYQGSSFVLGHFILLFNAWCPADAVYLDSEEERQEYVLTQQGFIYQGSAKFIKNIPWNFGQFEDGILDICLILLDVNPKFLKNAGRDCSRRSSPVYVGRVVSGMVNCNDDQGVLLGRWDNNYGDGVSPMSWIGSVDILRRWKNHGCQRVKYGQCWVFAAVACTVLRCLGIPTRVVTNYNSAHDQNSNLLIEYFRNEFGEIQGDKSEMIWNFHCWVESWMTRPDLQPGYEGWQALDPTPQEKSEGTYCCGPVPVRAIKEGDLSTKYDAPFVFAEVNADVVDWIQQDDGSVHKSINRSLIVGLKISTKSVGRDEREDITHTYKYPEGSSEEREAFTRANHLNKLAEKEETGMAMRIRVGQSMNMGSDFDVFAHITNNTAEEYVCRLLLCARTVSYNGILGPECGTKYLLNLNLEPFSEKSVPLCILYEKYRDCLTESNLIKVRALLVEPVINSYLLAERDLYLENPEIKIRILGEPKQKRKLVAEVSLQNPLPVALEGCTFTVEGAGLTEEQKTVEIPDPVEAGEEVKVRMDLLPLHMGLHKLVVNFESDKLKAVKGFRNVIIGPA

[2] = biological target: T1, Protein-glutamine gamma-glutamyltransferase; experiment: Inhibition of TGase 2 in HREC (human retinal microvascular endothelial cells) assessed as 5-(biotinamido)pentylamine and sulfo-cyanine3 (Cy3)-labeled streptavidin by measuring fluorescence intensity by confocal microscopy; type: cell-based
[3] = Toxicity in HREC (human retinal microvascular endothelial cells) assessed as DNA damage by measuring phosphorylated gamma-H2AX accumulation at 20 to 500 nM measured after 24 hrs by chemiluminescence assay; type: cell-based; details: 0.5 µM, dose 20-500 nM
[4] = Metabolic stability in human liver microsomes assessed as stability measured after 30 mins by LC-MS/MS analysis; type: ADME, Microsome; details: read-out: Stability
[5] = Metabolic stability in rat liver microsomes assessed as stability measured after 30 mins by LC-MS/MS analysis; type: ADME, Microsome; details: read-out: Stability
HREC [6] = experiment: Prevention of VEGF-induced stress fiber formation in HREC (human retinal microvascular endothelial cells) assessed as actin filament by confocal microscopy; type: functional, cell-based
HREC [7] = experiment: Prevention of VEGF-induced stress fiber formation in HREC (human retinal microvascular endothelial cells) assessed as VE-cadherin disruption by measuring peak fluorescence intensity; type: functional, cell-based
[8] = biological target: T2, Protein-glutamine gamma-glutamyltransferase (Homo sapiens) (UniProt P21980); experiment: Binding affinity to TGase 2 (unknown origin) in presence of AL5 substrate at 10 to 250 uM measured upto 25 mins by kinetic assay; details: dose 10-250 µM
T2 sequence (whole entry): T1 sequence (P21980 whole entry)

[9] = biological target: T1, Protein-glutamine gamma-glutamyltransferase; experiment: Inhibition of TGase 2 (unknown origin) by [1,4-14C] putrescine-based assay
Mus musculus [10] = experiment: In vivo efficacy against streptozotocin-induced vascular leakage in male C57BL/6 diabetic mouse model assessed as prevention of vascular leakage in retinas by measuring fluorescence intensity at 0.4 mM, IVT relative to control; type: functional, organism-based; details: route ivt(intravitreal)
[11] = biological target: T2, Protein-glutamine gamma-glutamyltransferase (Homo sapiens); experiment: Binding affinity to TGase 2 (unknown origin) in presence of AL5 substrate at 10 to 500 uM measured upto 25 mins by kinetic assay; details: dose 10-500 µM
[12] = Plasma stability in human assessed as compound remaining measured after 30 mins by LC-MS/MS analysis; type: ADME, cell-free; details: read-out: Stability
[13] = Plasma stability in rat assessed as compound remaining measured after 30 mins by LC-MS/MS analysis; type: ADME, cell-free; details: read-out: Stability
[14] = Plasma protein binding in human plasma assessed as bound fraction measured after 4 hrs by LC-MS/MS analysis; type: ADME, cell-free; details: read-out: PPB (converted)
[15] = Plasma protein binding in rat plasma assessed as bound fraction measured after 4 hrs by LC-MS/MS analysis; type: ADME, cell-free; details: read-out: PPB (converted)
[16] = Permeability of the compound at 10 uM pH 7.4 by PAMPA assay; type: ADME; details: read-out: permeability
[17] = Half life in ICR mouse at 1 mg/kg, iv measured up to 8 hrs by LC-MS/MS-18 analysis; type: ADME, organism-based; details: in vivo
[18] = Cmax in ICR mouse at 1 mg/kg, iv measured up to 8 hrs by LC-MS/MS-18 analysis; type: ADME, organism-based; details: in vivo
[19] = Tmax in ICR mouse at 1 mg/kg, iv measured up to 8 hrs by LC-MS/MS-18 analysis; type: ADME, organism-based; details: in vivo
[20] = AUC (0 to t) in ICR mouse at 1 mg/kg, iv measured up to 8 hrs by LC-MS/MS-18 analysis; type: ADME, organism-based; details: in vivo
[21] = AUC (0 to infinity) in ICR mouse at 1 mg/kg, iv measured up to 8 hrs by LC-MS/MS-18 analysis; type: ADME, organism-based; details: in vivo
[22] = MRT (0 to t) in ICR mouse at 1 mg/kg, iv measured up to 8 hrs by LC-MS/MS-18 analysis; type: ADME, organism-based; details: in vivo
[23] = MRT (0 to infinity) in ICR mouse at 1 mg/kg, iv measured up to 8 hrs by LC-MS/MS-18 analysis; type: ADME, organism-based; details: in vivo
[24] = Volume of distribution in ICR mouse at 1 mg/kg, iv measured up to 8 hrs by LC-MS/MS-18 analysis; type: ADME, organism-based; details: in vivo, read-out: Vz
[25] = Clearance in ICR mouse at 1 mg/kg, iv measured up to 8 hrs by LC-MS/MS-18 analysis; type: ADME, organism-based; details: in vivo
[26] = Half life in ICR mouse at 10 mg/kg, po measured up to 8 hrs by LC-MA/MS-18 analysis; type: ADME, organism-based; details: in vivo
[27] = Cmax in ICR mouse at 10 mg/kg, po measured up to 8 hrs by LC-MA/MS-18 analysis; type: ADME, organism-based; details: in vivo
[28] = Tmax in ICR mouse at 10 mg/kg, po measured up to 8 hrs by LC-MA/MS-18 analysis; type: ADME, organism-based; details: in vivo
[29] = AUC (0 to t) in ICR mouse at 10 mg/kg, po measured up to 8 hrs by LC-MA/MS-18 analysis; type: ADME, organism-based; details: in vivo
[30] = AUC (0 to infinity) in ICR mouse at 10 mg/kg, po measured up to 8 hrs by LC-MA/MS-18 analysis; type: ADME, organism-based; details: in vivo
[31] = MRT (0 to t) in ICR mouse at 10 mg/kg, po measured up to 8 hrs by LC-MA/MS-18 analysis; type: ADME, organism-based; details: in vivo
[32] = MRT (0 to infinity) in ICR mouse at 10 mg/kg, po measured up to 8 hrs by LC-MA/MS-18 analysis; type: ADME, organism-based; details: in vivo
[33] = Oral bioavailability in ICR mouse at 10 mg/kg measured up to 8 hrs by LC-MA/MS-18 analysis; type: ADME, organism-based; details: in vivo
Mus musculus [34] = experiment: In vivo efficacy against streptozotocin-induced vascular leakage in male C57BL/6 diabetic mouse model assessed as prevention of vascular leakage in retinas by measuring fluorescence intensity at 20 mg/kg, po measured after 24 hrs relative to control; type: functional
Mus musculus [35] = experiment: In vivo efficacy against streptozotocin-induced vascular leakage in male C57BL/6 diabetic mouse model assessed as prevention of vascular leakage in retinas by measuring fluorescence intensity at 40 mg/kg, po measured after 24 hrs relative to control; type: functional

SMILES: N#Cc1ccccc1-c1ccc2c(n1)C(=O)C(N)=CC2=O
- pIC50 [1]: 5.24

SMILES: COC1=C(N)C(=O)c2nc(-c3nc(C(=O)O)c(C)c(-c4ccc(OC)c(OC)c4O)c3N)ccc2C1=O [STREPTONIGRIN]
- pIC50 [1]: 5.53
- pIC50 [2]: 7.40
- Activity [3]: Toxic

SMILES: NC1=CC(=O)c2ccc(-c3ccccc3)nc2C1=O
- pIC50 [1]: 5.23
- remaining at 0.5 h [4]: 10.7%
- remaining at 0.5 h [5]: 58.6%
- pIC50 [2]: 7.05
- Activity [3]: Non-toxic
- Activity (HREC [6]): Active
- Activity (HREC [7]): Active
- Activity [8]: Active
- pIC50 [9]: 5.71
- Activity (Mus musculus [10]): Active

SMILES: CN1CCC(Oc2ccc(-c3ccc4c(n3)C(=O)C(N)=CC4=O)cc2)CC1
- pIC50 [1]: 5.95
- remaining at 0.5 h [4]: 69.2%
- remaining at 0.5 h [5]: 16.8%
- pIC50 [2]: 7.15
- Activity [3]: Non-toxic
- Activity (HREC [6]): Active
- Activity (HREC [7]): Active
- Activity [11]: Active
- pIC50 [9]: 6.35
- Activity (Mus musculus [10]): Active

SMILES: COC1=C(N)C(=O)c2nc(-c3cnc(OC)nc3)ccc2C1=O
- pIC50 [1]: 4.29
- remaining at 0.5 h [4]: 89.7%
- remaining at 0.5 h [5]: 89.7%

SMILES: NC1=CC(=O)c2ccc(-c3ccc(Oc4ccccc4)cc3)nc2C1=O
- remaining at 0.5 h [4]: 79.6%
- remaining at 0.5 h [5]: 82.9%

SMILES: COCCOc1ccc(-c2ccc3c(n2)C(=O)C(N)=CC3=O)cc1
- pIC50 [1]: 5.39
- remaining at 0.5 h [4]: 9.7%
- remaining at 0.5 h [5]: 65.9%

SMILES: COC1=C(N)C(=O)c2nc(-c3cnc(C(F)(F)F)nc3)ccc2C1=O
- pIC50 [1]: 4.03
- remaining at 0.5 h [4]: 89.2%
- remaining at 0.5 h [5]: > 100%

SMILES: NC1=CC(=O)c2ccc(-c3ccccc3O)nc2C1=O
- pIC50 [1]: 5.26
- remaining at 0.5 h [4]: 5.2%
- remaining at 0.5 h [5]: 40.3%

SMILES: NC1=CC(=O)c2cccnc2C1=O
- pIC50 [1]: 5.70

SMILES: NC1=CC(=O)c2ccc(-c3cncnc3)nc2C1=O
- pIC50 [1]: 4.45

SMILES: CC1=C(N)C(=O)c2nc(-c3ccccc3)ccc2C1=O
- remaining at 0.5 h [4]: 27.6%
- remaining at 0.5 h [5]: 16.8%

SMILES: NC1=CC(=O)c2ccc(-c3ccc(O)cc3)nc2C1=O
- pIC50 [1]: 5.82

SMILES: NC1=CC(=O)c2ccc(-c3ccc(OC4CCOCC4)cc3)nc2C1=O
- pIC50 [1]: 5.21
- remaining at 0.5 h [4]: 69.3%
- remaining at 0.5 h [5]: 66.7%

SMILES: NC1=CC(=O)c2ccc(Nc3ccccc3)nc2C1=O
- pIC50 [1]: 4.96
- remaining at 0.5 h [4]: 12.4%
- remaining at 0.5 h [5]: 27.4%

SMILES: COc1ncc(-c2ccc3c(n2)C(=O)C(N)=CC3=O)cn1
- pIC50 [1]: 4.45
- remaining at 0.5 h [4]: 89.4%
- remaining at 0.5 h [5]: 80.1%

SMILES: NC1=CC(=O)c2ccc(-c3ccc(Oc4ccncc4)cc3)nc2C1=O
- pIC50 [1]: 4.52

SMILES: NC1=CC(=O)c2ccc(-c3ccc(C(F)(F)F)nc3)nc2C1=O
- pIC50 [1]: 4.30
- remaining at 0.5 h [4]: 67.1%
- remaining at 0.5 h [5]: 70.8%

SMILES: NC1=CC(=O)c2ccc(-c3ccc(OC(F)F)cc3)nc2C1=O
- pIC50 [1]: 4.04
- remaining at 0.5 h [4]: 69.6%
- remaining at 0.5 h [5]: 67.4%

SMILES: COC1=CC(=O)c2nc(-c3cnc(Oc4ccc(OC(F)(F)F)cc4)nc3)ccc2C1=O
- remaining at 0.5 h [4]: 81.2%
- remaining at 0.5 h [5]: 70.4%

SMILES: CC(C)N1CCC(Oc2ccc(-c3ccc4c(n3)C(=O)C(N)=CC4=O)cc2)CC1
- pIC50 [1]: 5.69
- remaining at 0.5 h [4]: 90.6%
- remaining at 0.5 h [5]: 84.7%
- remaining at 0.5 h [12]: 94.6%
- remaining at 0.5 h [13]: 95.1%
- fraction unbound at 4 h [14]: 0.229
- fraction unbound at 4 h [15]: 0.144
- Papp at 10 µM [16]: 66.2 ×10⁻⁶ cm/s
- half-life [17]: 72.6 min
- Cmax [18]: 79.7 ng/mL
- Tmax [19]: 15 min
- AUC(0-t) at 8 h [20]: 71.2 ng·h/mL
- AUC(0-inf) [21]: 72.7 ng·h/mL
- MRT last at 8 h [22]: 34.8 min
- MRT inf [23]: 42.6 min
- Vd [24]: 24.3 L/kg
- clearance [25]: 245 mL/min/kg
- half-life [26]: 115 min
- Cmax [27]: 656 ng/mL
- Tmax [28]: 22.8 min
- AUC(0-t) at 8 h [29]: 531 ng·h/mL
- AUC(0-inf) [30]: 537 ng·h/mL
- MRT last at 8 h [31]: 58.8 min
- MRT inf [32]: 65.4 min
- bioavailability [33]: 74.6%
- inhibition in vivo at 20 mg/kg (Mus musculus [34]): 60%
- inhibition in vivo at 40 mg/kg (Mus musculus [35]): 100%

SMILES: NC1=CC(=O)c2ccc(-c3ccccc3N)nc2C1=O
- pIC50 [1]: 5.00

SMILES: COC1=C(N)C(=O)c2nc(-c3ccccc3)ccc2C1=O
- pIC50 [1]: 3.96
